Experimental data as given in patent US20230022724A1, “NOVEL IMIDAZOPYRAZINE DERIVATIVES” (Hoffmann-La Roche Inc., priority 2018, published 2023).
Counter-ions that a name gives are not always drawn. Like-named read-outs stand apart in the source and are kept apart here.

System: Acinetobacter baumannii ATCC17978
Assay: Antimicrobial susceptibility testing: 90% growth inhibitory concentration (IC90) determination
Type: cell-based
Conditions: read-out: ATCC17978 IC90
Description: The in vitro antimicrobial activity of the compounds was determined according to the following procedure:
The assay used a 10-points Iso-Sensitest broth medium to measure quantitatively the in vitro activity of the compounds against Acinetobacter baumannii ATCC17978 and Acinetobacter baumannii ATCC17961.
Stock compounds in DMSO were serially twofold diluted (e.g. range from 50 to 0.097 μM final concentration) in 384 wells microtiter plates and inoculated with 49 μl the bacterial suspension in Iso-Sensitest medium to have a final cell concentration of ˜5×10^(5) CFU/ml in a final volume/well of 50 ul/well. Microtiter plates were incubated at 35±2° C.
Bacterial cell growth was determined with the measurement of optical density at λ=600 nm each 20 minutes over a time course of 16 h. Growth inhibition was calculated during the logarithmic growth of the bacterial cells with determination of the concentration inhibiting 50% (IC50) and 90% (IC90) of the growth.
Table 1 provides the 90% growth inhibitory concentrations (IC90) in micromoles per liter of the compounds of present invention obtained against the strain Acinetobacter baumannii ATCC17978 and Acinetobacter baumannii ATCC17961.

[1] = Acinetobacter baumannii, ATCC17978, 16 h, 90% growth inhibitory concentration, Acinetobacter baumannii ATCC17978, Iso-Sensitest broth, OD 600 nm over 16 h
[2] = 90% growth inhibitory concentration, Acinetobacter baumannii ATCC17978, Iso-Sensitest broth, OD 600 nm over 16 h
[3] = Acinetobacter baumannii, ATCC17978, 16 h

IC90 [1] [µM] | SMILES | further results
1.9 | COc1ccc(-c2cnc3c(Nc4ccc(C(=O)N5CCNC(C(=O)O)C5)c(Cl)c4)nccn23)c(F)c1F (centres unmarked) [Example 1, 4-(2-chloro-4-((3-(2,3-difluoro-4-methoxyphenyl)imidazo[1,2-a]pyrazin-8-yl)amino)benzoyl)piperazine-2-carboxylic Acid] | –
0.12 | COc1ccc(-c2cnc3c(Nc4ccc(C(=O)N5CCC(CN)CC5)c(Cl)c4)nccn23)cc1F [Example 4, (4-(Aminomethyl)piperidin-1-yl)(2-chloro-4-((3-(3-fluoro-4-methoxyphenyl)imidazo[1,2-a]pyrazin-8-yl)amino)phenyl)methanone hydrochloride] | –
0.17 | COc1ccc(-c2cnc3c(Nc4ccc(C(=O)N5CCC(CN)CC5)c(Cl)c4)nccn23)c(F)c1F [Example 8, (4-(aminomethyl)piperidin-1-yl)(2-chloro-4-((3-(2,3-difluoro-4-methoxyphenyl)imidazo[1,2-a]pyrazin-8-yl)amino)phenyl)methanone] | –
0.11 | N#CCOc1cc(Cl)c(-c2cnc3c(Nc4ccc(C(=O)N5CCC(C(=O)N6CCNC(CO)C6)CC5)c(Cl)c4)nccn23)cc1F (centres unmarked) [Example 15, 2-[5-chloro-4-[8-[3-chloro-4-[4-[3-(hydroxymethyl)piperazine-1-carbonyl]piperidine-1-carbonyl]anilino]imidazo[1,2-a]pyrazin-3-yl]-2-fluoro-phenoxy]acetonitrile; 2,2,2-trifluoroacetic] | –
0.18 | CNCC(=O)N1CCN(C(=O)c2ccc(Nc3nccn4c(-c5ccc(OC)c(F)c5)cnc34)cc2Cl)CC1 [Example 18, 1-(4-(2-chloro-4-((3-(3-fluoro-4-methoxyphenyl)imidazo[1,2-a]pyrazin-8-yl)amino)benzoyl)piperazin-1-yl)-2-(methylamino)ethan-1-one hydrochloride] | –
0.13 | CNCCN1CCN(C(=O)c2ccc(Nc3nccn4c(-c5ccc(OC)c(F)c5)cnc34)cc2Cl)CC1 [Example 20, (2-chloro-4-((3-(3-fluoro-4-methoxyphenyl)imidazo[1,2-a]pyrazin-8-yl)amino)phenyl)(4-(2-(methylamino)ethyl)piperazin-1-yl)methanone] | –

More lines, now with the values behind:

SMILES | IC90 [1] [µM] | further results
COc1ccc(-c2cnc3c(Nc4ccc(C(=O)N5CCC(C(=O)N6CCNC(C(=O)O)C6)CC5)c(Cl)c4)nccn23)cc1F (centres unmarked) [Example 2, 4-(1-(2-chloro-4-((3-(3-fluoro-4-methoxyphenyl)imidazo [1,2-a]pyrazin-8-yl)amino)benzoyl)piperidine-4-carbonyl) piperazine-2-carboxylic acid, formate salt] | – | IC90 (90% growth inhibitory concentration, Acinetobacter baumannii ATCC17978, Iso-Sensitest broth, OD 600 nm over 16 h, formate salt): 0.47 µM
COc1ccc(-c2cnc3c(Nc4ccc(C(=O)N5CCN(CCN(C)C)CC5)c(Cl)c4)nccn23)cc1F [Example 3, (2-Chloro-4-((3-(3-fluoro-4-methoxyphenyl)imidazo[1,2-a]pyrazin-8-yl)amino)phenyl)(4-(2-(dimethylamino)ethyl)piperazin-1-yl)methanone] | – | IC90 [2]: 0.12 µM
NCC1CCN(C(=O)c2ccc(Nc3nccn4c(-c5ccc(OC(F)F)cc5)cnc34)cc2Br)CC1 [Example 5, (4-(aminomethyl)piperidin-1-yl)(2-bromo-4-((3-(4-(difluoromethoxy)phenyl)imidazo[1,2-a]pyrazin-8-yl)amino)phenyl)methanone hydrochloride] | 0.14 | –
CN(C)CC1CCN(C(=O)c2ccc(Nc3nccn4c(-c5ccc(OCC#N)c(F)c5Cl)cnc34)cc2Cl)CC1 [Example 6, 2-[3-chloro-4-[8-[3-chloro-4-[4-[(dimethylamino)methyl]piperidine-1-carbonyl]anilino]imidazo[1,2-a]pyrazin-3-yl]-2-fluoro-phenoxy]acetonitrile; formic acid] | – | IC90 [3]: 0.11 µM
COc1ccc(-c2cnc3c(Nc4ccc(C(=O)N5CCC(CCN)CC5)c(Cl)c4)nccn23)c(F)c1F [Example 7, (4-(2-aminoethyl)piperidin-1-yl)(2-chloro-4-((3-(2,3-difluoro-4-methoxyphenyl)imidazo[1,2-a]pyrazin-8-yl)amino)phenyl)methanone] | 0.1 | –
COc1ccc(-c2cnc3c(Nc4ccc(C(=O)N5CC5)c(Cl)c4)nccn23)c(F)c1F [Example 9, aziridin-1-yl(2-chloro-4-((3-(2,3-difluoro-4-methoxyphenyl)imidazo[1,2-a]pyrazin-8-yl)amino)phenyl)methanone] | 1.6 | –
CN(C)CCN1CCN(C(=O)c2ccc(Nc3nccn4c(-c5ccc(OCC#N)c(F)c5F)cnc34)cc2Cl)CC1 [Example 10, 2-(4-(8-((3-chloro-4-(4-(2-(dimethylamino)ethyl)piperazine-1-carbonyl)phenyl)amino)imidazo[1,2-a]pyrazin-3-yl)-2,3-difluorophenoxy)acetonitrile] | 0.064 | –
N#CCOc1ccc(-c2cnc3c(Nc4ccc(C(=O)N5CCC(c6cnc[nH]6)CC5)c(Cl)c4)nccn23)c(F)c1F [Example 11, 2-[4-[8-[3-chloro-4-[4-(1H-imidazol-5-yl)piperidine-1-carbonyl]anilino]imidazo[1,2-a]pyrazin-3-yl]-2,3-difluoro-phenoxy]acetontrile; 2,2,2-trifluoroacetic acid] | 0.14 | –
N#CCOc1ccc(-c2cnc3c(Nc4ccc(C(=O)N5CCC(CN)CC5)c(Cl)c4)nccn23)c(F)c1F [Example 12, 2-(4-(8-((4-(4-(aminomethyl)piperidine-1-carbonyl)-3-chlorophenyl)amino)imidazo[1,2-a]pyrazin-3-yl)-2,3-difluorophenoxy)acetonitrile] | 0.049 | –
N#CCOc1ccc(-c2cnc3c(Nc4ccc(C(=O)N5CCC(c6nnn[nH]6)CC5)c(Cl)c4)nccn23)c(F)c1F [Example 13, 2-[4-[8-[3-chloro-4-[4-(1H-tetrazol-5-yl)piperidine-1-carbonyl]anilino]imidazo[1,2-a]pyrazin-3-yl]-2,3-difluoro-phenoxy]acetonitrile;2,2,2-trifluoroacetic acid] | 0.28 | –
CN(C)CC(=O)N1CCN(C(=O)c2ccc(Nc3nccn4c(-c5ccc(OCC#N)c(F)c5F)cnc34)cc2Cl)CC1 [Example 14, 2-[4-[8-[3-chloro-4-[4-[2-(dimethylamino)acetyl]piperazine-1-carbonyl]anilino]imidazo[1,2-a]pyrazin-3-yl]-2,3-difluoro-phenoxy]acetonitrile; 2,2,2-trifluoroacetic acid] | – | IC90 [3]: 0.028 µM
CNCCNC(=O)C1CCN(C(=O)c2ccc(Nc3nccn4c(-c5ccc(OC)c(F)c5)cnc34)cc2Cl)CC1 [Example 16, 1-(2-chloro-4-((3-(3-fluoro-4-methoxyphenyl)imidazo[1,2-a]pyrazin-8-yl)amino)benzoyl)-N-(2-(methylamino)ethyl)piperidine-4-carboxamide hydrochloride] | – | IC90 [3]: 0.1 µM
COc1ccc(-c2cnc3c(Nc4ccc(C(=O)N5CCC(C(=O)NCC6CNC6)CC5)c(Cl)c4)nccn23)cc1F [Example 19, N-(azetidin-3-ylmethyl)-1-(2-chloro-4-((3-(3-fluoro-4-methoxyphenyl)imidazo[1,2-a]pyrazin-8-yl)amino)benzoyl)piperidine-4-carboxamide] | – | IC90 [2]: 0.3 µM
N#CCOc1ccc(-c2cnc3c(Nc4ccc(C(=O)N5CCC(c6ccncc6)CC5)c(Cl)c4)nccn23)c(F)c1F [Example 21, 2-[4-[8-[3-chloro-4-[4-(4-pyridyl)piperidine-1-carbonyl]anilino]imidazo[1,2-a]pyrazin-3-yl]-2,3-difluoro-phenoxy]acetonitrile] | 0.87 | –
